Experimental data: ChEMBL document CHEMBL1201862, “PubChem BioAssay data set” (2004)
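Five concentrations, 48 hours, 96-well plates. GI50 marks 50% less growth.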 Activity calls are given as the source filed them. Rule as the data show it: active = GI50 up to about 1.1 µM and inactive = higher.

Assays:
Assay in all cases: inhibition of tumour cell growth, NCI panel, 48 h
ACHN = test system: ACHN
SK-MEL-5 = test system: SK-MEL-5
HCT-116 = test system: HCT-116
M14 = test system: M14
DU-145 = test system: DU-145
UACC-62 = test system: UACC-62
U-251 = test system: U-251
SW-620 = test system: SW-620
MDA-MB-435 = test system: MDA-MB-435
T47D = test system: T47D
MCF7 = test system: MCF7
SF-295 = test system: SF-295
EKVX = test system: EKVX
NCI-H460 = test system: NCI-H460
SF-268 = test system: SF-268
KM12 = test system: KM12
PC-3 = test system: PC-3
A549 = test system: A549
RPMI-8226 = test system: RPMI-8226
NCI/ADR-RES = test system: NCI/ADR-RES
IGROV-1 = test system: IGROV-1
SK-MEL-2 = test system: SK-MEL-2
CCRF-CEM = test system: CCRF-CEM
SR = test system: SR
RXF 393 = test system: RXF 393
Malme-3M = test system: Malme-3M
MDA-N = test system: MDA-N
OVCAR-5 = test system: OVCAR-5
OVCAR-8 = test system: OVCAR-8
UO-31 = test system: UO-31
NCI-H23 = test system: NCI-H23
SF-539 = test system: SF-539
SK-MEL-28 = test system: SK-MEL-28
UACC-257 = test system: UACC-257
NCI-H522 = test system: NCI-H522
HOP-92 = test system: HOP-92
HCT-15 = test system: HCT-15
HOP-62 = test system: HOP-62
TK-10 = test system: TK-10
OVCAR-4 = test system: OVCAR-4
SNB-75 = test system: SNB-75
LOX IMVI = test system: LOX IMVI
MDA-MB-231 = test system: MDA-MB-231
HT-29 = test system: HT-29
NCI-H226 = test system: NCI-H226
CAKI-1 = test system: CAKI-1
786-0 = test system: 786-0
SN12C = test system: SN12C
SK-OV-3 = test system: SK-OV-3
K562 = test system: K562
MOLT-4 = test system: MOLT-4
Hs-578T = test system: Hs-578T
COLO 205 = test system: COLO 205
HL-60 = test system: HL-60
OVCAR-3 = test system: OVCAR-3
SNB-19 = test system: SNB-19
A498 = test system: A498
HCC 2998 = test system: HCC 2998

Measured: GI50

Cc1cc(=O)oc2c(CNC(C(=O)O)C(C)O)c(O)ccc12 (centres undefined)
> 100 µM: HCT-15
inactive: ACHN > 100 µM | SK-MEL-5 > 100 µM | HCT-116 > 100 µM | M14 > 100 µM | DU-145 > 100 µM | UACC-62 > 100 µM | U-251 > 100 µM | SW-620 > 100 µM | MDA-MB-435 > 100 µM | T47D > 100 µM | MCF7 > 100 µM | SF-295 > 100 µM | EKVX > 100 µM | NCI-H460 > 100 µM | SF-268 > 100 µM | KM12 > 100 µM | PC-3 > 100 µM | A549 > 100 µM | RPMI-8226 > 100 µM | NCI/ADR-RES > 100 µM | IGROV-1 > 100 µM | SK-MEL-2 > 100 µM | CCRF-CEM > 100 µM | SR > 100 µM | RXF 393 > 100 µM | Malme-3M 24.8 µM | MDA-N > 100 µM | OVCAR-5 > 100 µM | OVCAR-8 > 100 µM | UO-31 > 100 µM | NCI-H23 > 100 µM | SF-539 > 100 µM | SK-MEL-28 > 100 µM | UACC-257 > 100 µM | NCI-H522 > 100 µM | HOP-92 > 100 µM | HOP-62 > 100 µM | TK-10 > 100 µM | OVCAR-4 > 100 µM | SNB-75 8.89 µM | LOX IMVI > 100 µM | MDA-MB-231 > 100 µM | HT-29 > 100 µM | NCI-H226 > 100 µM | CAKI-1 > 100 µM | 786-0 > 100 µM | SN12C > 100 µM | SK-OV-3 > 100 µM | K562 > 100 µM | MOLT-4 > 100 µM | Hs-578T 77.4 µM | COLO 205 > 100 µM | HL-60 > 100 µM | OVCAR-3 > 100 µM | SNB-19 > 100 µM

O=C(CC(C(=O)c1cccs1)c1cccs1)c1ccccc1Cl (centres undefined)
94.8 µM: HCT-15
inactive: ACHN > 100 µM | SK-MEL-5 > 100 µM | HCT-116 52.1 µM | M14 > 100 µM | DU-145 > 100 µM | UACC-62 > 100 µM | U-251 > 100 µM | SW-620 > 100 µM | MDA-MB-435 > 100 µM | T47D 52 µM | MCF7 > 100 µM | SF-295 > 100 µM | EKVX 49.8 µM | NCI-H460 77.1 µM | SF-268 > 100 µM | KM12 93.1 µM | PC-3 72.9 µM | A549 > 100 µM | RPMI-8226 50.1 µM | NCI/ADR-RES 33.5 µM | IGROV-1 > 100 µM | SK-MEL-2 > 100 µM | A498 > 100 µM | CCRF-CEM > 100 µM | SR 39.5 µM | Malme-3M 61.8 µM | MDA-N 97.7 µM | OVCAR-5 > 100 µM | OVCAR-8 > 100 µM | UO-31 29.7 µM | NCI-H23 33 µM | SF-539 > 100 µM | SK-MEL-28 81.7 µM | UACC-257 74.3 µM | HCC 2998 > 100 µM | HOP-62 > 100 µM | TK-10 > 100 µM | OVCAR-4 > 100 µM | SNB-75 > 100 µM | LOX IMVI > 100 µM | MDA-MB-231 > 100 µM | HT-29 76.6 µM | NCI-H226 > 100 µM | CAKI-1 > 100 µM | 786-0 > 100 µM | SN12C > 100 µM | SK-OV-3 > 100 µM | K562 98.4 µM | MOLT-4 46.1 µM | Hs-578T 75.3 µM | COLO 205 54 µM | HL-60 76.4 µM | SNB-19 > 100 µM

COC(=O)C1(C(=O)OC)Cc2ccc(C)cc2C2=C1C(=O)c1ccccc1C2=O
inactive: ACHN 16.5 µM | SK-MEL-5 15 µM | HCT-116 18.2 µM | M14 > 10 µM | DU-145 20.2 µM | UACC-62 13.8 µM | SW-620 19.8 µM | MDA-MB-435 15.6 µM | T47D 7.71 µM | MCF7 15 µM | SF-295 21.2 µM | EKVX 14.6 µM | NCI-H460 40.6 µM | SF-268 16 µM | KM12 16.6 µM | PC-3 15.2 µM | A549 29.9 µM | NCI/ADR-RES 12.6 µM | IGROV-1 19.4 µM | SK-MEL-2 11.7 µM | CCRF-CEM 15.2 µM | SR 24.2 µM | Malme-3M 32 µM | MDA-N 16.5 µM | OVCAR-5 21 µM | OVCAR-8 13.3 µM | NCI-H23 18.2 µM | SF-539 23.9 µM | SK-MEL-28 16.6 µM | UACC-257 16.5 µM | NCI-H522 15.1 µM | HOP-92 20 µM | HOP-62 14.4 µM | TK-10 57 µM | OVCAR-4 11.5 µM | SNB-75 12.8 µM | LOX IMVI 14.9 µM | MDA-MB-231 16.7 µM | HT-29 21.7 µM | NCI-H226 > 100 µM | 786-0 26.4 µM | SN12C 19.8 µM | K562 18.2 µM | MOLT-4 8.51 µM | Hs-578T 24.6 µM | HL-60 31.6 µM | OVCAR-3 3.24 µM | SNB-19 58.6 µM
12.6 µM: HCT-15
